The text below walks through data of PMC8386742, “Discovery of N-aryl sulphonamide-quinazoline derivatives as anti-gastric cancer agents in vitro and in vivo via activating the Hippo signalling pathway” (Journal of Enzyme Inhibition and Medicinal Chemistry, 2021).

The structures appear in SMILES notation.

The subject of one data set is MGC-803 xenograft tumour. As to the kind of experiment: MGC-803 xenograft model. The data set is classed as in vivo, nude mice. As to the method:
When the tumour volume reached 100 mm^3, vehicle control, compound 9i, and 5-FU were administered by daily intraperitoneal injection for 21 consecutive days. During the treatment, tumour volume and body weight of nude mice were measured every 3 days from the beginning of treatment. […] Tumour weight was measured after the execution of animals, the inhibition rate of the compound 9i treated group was over 60% than the vehicle group (Figures 7(B,C)). Tunnel staining was used for cell apoptosis detection, as shown in Figure 7(D), compound 9i increased the level of cell apoptosis. […] Next, the levels of YAP, Bcl-2, c-Myc, Ki67, and cleaved PARP in tissues were detected using immunochemistry to validate the results. […] The data indicated compound 9i inhibited YAP to inhibit the tumour in vivo.
A human gastric cancer subcutaneous transplantation tumour model was established with MGC-803 cells. After the tumour volume reaches 100 mm3 the MGC-803 bearing mice were randomised into 3 groups and intraperitoneal injection with normal saline or drugs continuously for 21 days. Tumour volume was measured every 3 days (Length × Width2/2). Mice were executed after treatment. 500 μL blood samples was collected each mouse, samples were then centrifuged at 2000 g for 10 min for biochemistry analysis. Tumour and organs tissues were harvested for H&E staining or immunochemistry detection. The experiments in the study were performed comply with the protocols approved by the Institutional Animal Care and Use Committee, Zhengzhou University.

A further data set has as its system MGC-803 cells. As to the kind of experiment: MTT antiproliferative assay, MGC-803 cells. In kind it is cell-based, human. Particulars: exposure for 48 h. The protocol: (§1) The in vitro antiproliferative activities of new target compounds 6a–6g, 9a–9i, 10a–10j, 11a–11j, and 14a–14d were evaluated against four human cancer cell lines (MGC-803, PC-3, HCT-116, and MCF-7) using MTT assay and 5-FU as a positive drug. The following Tables 1–[4] depicted the results of in vitro antiproliferative activity.
(§2) Cell lines used were cultured in humidified incubator in a humidified atmosphere of 5% CO2 and 95% air. The RPMI-1640 medium was supplemented with 10% foetal bovine serum, penicillin (100 U/ml) and streptomycin (0.1 mg/ml).
(§3) Cell lines were seeded into 96-well plates and incubated for 24 h. Then cells were treated with different concentrations of compounds. And after another 48 h, MTT reagent (20 μL per well) was added to each well and then incubated at 37 °C for 4 h. After the suspension was discarded, formazan was then dissolved with DMSO. Absorbencies of formazan solution were measured at 490 nm. The IC50 values of tested compounds were calculated by SPSS version 17.0.
On the technique in general: Tetrazolium assays rely on reduction of a dye to a coloured formazan, in cell work by metabolically active cells.

The next data set concerns HCT-116 cells. Put plainly: MTT antiproliferative assay, HCT-116 cells. The data set is classed as cell-based, human. Particulars: exposure for 48 h. As to the method: as §1, §2, §3
Another data set relates to GES-1 cells. As to the kind of experiment: MTT antiproliferative assay, GES-1 normal gastric epithelial cells. The data set is classed as cell-based.
Description: (§4) Furthermore, MGC-803 cells were more sensitive to the compounds than HCT-116, PC-3 cells MCF-7 cells. Moreover, we chose two other common gastric cancer cell lines (HGC-27 and SGC-7901) and another two normal cells GES-1 and HUEVC cells to examine for the inhibitory activity of compound 9i.
Since compound 9i presented high potency against cancer cells and MGC-803 cells was more sensitive to compound 9i, compound 9i, MGC-803, another two gastric cancer cells SGC-7901, HGC-27, and GES-1(normal gastric epithelial cells) were used for further detection. As shown in Figures 3(A,B), compound 9i inhibited three gastric cancer cell lines in the dose and time-dependent manners. The inhibition ratios of compound 9i against three gastric cancer cells were all above 50% after 48 h in the high dosage group. Moreover, MGC-803 and SGC-7901 cell lines were more sensitive and compound 9i inhibited over 65% cell viability with high dose treatment for 48 h.
as §2, §3

The test system of the next data set is HGC-27 cells. As to the kind of experiment: MTT antiproliferative assay, HGC-27 gastric cancer cells. The data set is classed as cell-based. As to the method: as §4, §2, §3
Data set [1] concerns MGC-803 and SGC-7901 cells. As to the kind of experiment: Cell cycle distribution in gastric cancer cells. The data set is classed as cell-based. Particulars: 24 h. The source says: Because of the potent inhibitory activity on cell viability of compound 9i, we next explored the effects of compound 9i on cell proliferation in MGC-803 and SGC-7901 cells.
Figure 6. Gastric cancer cell proliferation inhibition inhibited by 9i. Density ratios relative to β-Actin were shown on the top of each Western blotting band. (A,B) Cell growth curves of in MGC-803 and SGC-7901 cells after the treatment with indicated concentrations of 9i for different hours; (C,D). Gastric cancer cell colony formation, cells were treated for 7 days; (E) Cell cycle distribution of MGC-803 and SGC-7901 after the treatment with indicated concentrations of 9i for 24 h; (F,G) Cell cycle related proteins in gastric cancer cells after the treatment with indicated concentrations of 9i for 24 h.

The subject of another data set is Hippo signalling pathway. As to the kind of experiment: Western blotting / mRNA of Hippo related proteins in MGC-803 and SGC-7901 cells. In kind it is cell-based. From the text: Phosphorylation of YAP is the process of YAP inactivation. YAP protein is inactivated (phosphorylated) by Hippo cascade pathway in cells. […] We also investigated the influence of 9i on upstream signal-regulated molecules of the Hippo pathway. […] Transcription factor TEAD interacts with YAP to express downstream substrates, the level of TEAD was not changed by compound 9i (Figures 4(A,B)). Yap entering the nucleus is a key step of substrates expression. With the treatment of compound 9i, the level of YAP inside nuclear was decreased (Figure 4(C)).
Figure 4. Influence of 9i on the Hippo signalling pathway in two gastric cancer cells. Density ratios relative to its loading control protein (β-Actin/LaminB1/GAPDH) were shown on the top of each Western blotting band. (A) The levels of Hippo related proteins, cells were treated with indicated concentrations of 9i for 12 h; (B) The levels of Hippo related proteins in different hours after the treatment with 450 nM of 9i; (C) Level of YAP in the cytoplasm and nuclear, cells were treated for 12 h with 450 nM of 9i; (D) Levels of Bcl-2 and c-Myc in MGC-803 cells after the treatment with 450 nM of 9i for different hours; (E) mRNA levels of Bcl-2 and c-My in MGC-803 cells after the treatment with 450 nM of 9i 12 h. Data were presented as mean ± SD.
2 gastric cancer cells were seeded in dishes and treated with 9i or DMSO. After 48 h, MGC-803 and SGC-7901 cells were collected and then lysed. The denatured lysates of each groups were electrophoretic separated in SDS-PAGE. Proteins were then transferred onto PVDF membranes from gels. After blocking for 2 h, membranes were incubated with primary antibodies conjugation. Then, the membranes were washed and incubated with 2nd antibodies. At last, specific proteins were detected.
(In western blotting, separated proteins are transferred to a membrane and probed.)

As for `COc1ccc(S(=O)(=O)N(Cc2nc(C)c3ccccc3n2)c2cc(OC)c(OC)c(OC)c2)cc1` [Compound 9i, 4-Methoxy-N-((4-methylquinazolin-2-yl)methyl)-N-(3,4,5-trimethoxyphenyl) benzene-sulfonamide], the “tumour growth (tumour volume)” value in the data set on MGC-803 xenograft tumour (daily intraperitoneal injection for 21 days) was “inhibited tumour growth in vivo”. Moreover, the “tumour weight inhibition rate” value with MGC-803 xenograft tumour (daily intraperitoneal injection for 21 days, versus vehicle group) is on record as “over 60%”. Further, the “expression of YAP, Bcl-2 and c-Myc in tumour tissues” value in the data set on MGC-803 xenograft tumour (tumour tissues after 21 days treatment) is “significantly down-regulated”. For the same compound, the half-inhibitory concentration (IC50) (commonly the concentration that gives 50% inhibition) in the data set with MGC-803 cells (Homo sapiens, MGC-803, 48 h) came to 360 ± 20 nM; in the data set on MGC-803 cells, 363 nM; in the data set with HCT-116 cells (Homo sapiens, HCT-116, 48 h), 708 nM; in the data set with HCT-116 cells, 700 ± 40 nM; with GES-1 cells (Homo sapiens, GES1, MTT, exposure for 48 h, non-cancer cell line), 894 nM; with HGC-27 cells (Homo sapiens, HGC-27, MTT, exposure for 48 h), 458 nM. In the data set on GES-1 cells (normal gastric epithelial cells), the “cytotoxicity towards GES-1 cells” value was “low cytotoxicity”. The “inhibition ratio against HGC-27 cells” value with HGC-27 cells (high dosage group, 48 h) is “above 50%”. Further, in data set [1], the cell cycle arrest entry is “remarkable and dose-dependent G2/M arrest”. Besides, the “MST1 and SAV levels” value in the data set on Hippo signalling pathway (MGC-803 and SGC-7901 cells) is listed as “did not show an obvious change”. Also, in the data set on Hippo signalling pathway (MGC-803 and SGC-7901 cells), the “level of TEAD” value is listed as “not changed”. In the data set with Hippo signalling pathway (MGC-803 and SGC-7901 cells), the “level of YAP” value was “reduced level of YAP”. For the same compound, the p-LATS level result with Hippo signalling pathway (MGC-803 and SGC-7901 cells) is recorded as “up-regulated”. In the data set with Hippo signalling pathway (MGC-803 and SGC-7901 cells, dose and time-dependent), the “phosphorylation of YAP” value is “up-regulated the phosphorylation of YAP”. Moreover, the “Bcl-2 and c-Myc expression” value with Hippo signalling pathway (two gastric cancer cells, mRNA and protein) was “down-regulated at mRNA and protein levels”.
